The values below come from US9550781B2, “Kinase modulating compounds, compositions containing the same and use thereof” (CENTAURUS BIOPHARMA CO., LTD., priority 2011, dated 2017).

As usually defined, the pIC50 is −log10 of the IC50, conventionally taken in molar units.

The structures appear in SMILES notation. pIC50: −log10 of the molar value.

In this assay the target is recombinant B-RAF enzyme (Homo sapiens (Human), UniProt P15056). Briefly: In vitro B-RAF Kinase Assay (HTRF), IC50 determination. Type of assay: biochemical. Conditions: 6HIS-Mek1 substrate, 60 min at 23° C. The procedure: In vitro B-RAF Kinase Assay. To determine in vitro activities of recombinant B-RAF enzyme, a Homogeneous Time-Resolved Fluorescence (HTRF) assay was performed. […] Meanwhile, an Anti-6HIS-d2 antibody (Anti-6HIS-d2, Cisbio international) was added to detection system. When the two antibodies were close enough, energy, transfer was happened between Eu and d2, then activities of enzyme was determine by measuring fluorescence intensity (320 nm excitation, 665 nm emission).
Chain of recombinant B-RAF enzyme (P15056 whole entry, species assumed): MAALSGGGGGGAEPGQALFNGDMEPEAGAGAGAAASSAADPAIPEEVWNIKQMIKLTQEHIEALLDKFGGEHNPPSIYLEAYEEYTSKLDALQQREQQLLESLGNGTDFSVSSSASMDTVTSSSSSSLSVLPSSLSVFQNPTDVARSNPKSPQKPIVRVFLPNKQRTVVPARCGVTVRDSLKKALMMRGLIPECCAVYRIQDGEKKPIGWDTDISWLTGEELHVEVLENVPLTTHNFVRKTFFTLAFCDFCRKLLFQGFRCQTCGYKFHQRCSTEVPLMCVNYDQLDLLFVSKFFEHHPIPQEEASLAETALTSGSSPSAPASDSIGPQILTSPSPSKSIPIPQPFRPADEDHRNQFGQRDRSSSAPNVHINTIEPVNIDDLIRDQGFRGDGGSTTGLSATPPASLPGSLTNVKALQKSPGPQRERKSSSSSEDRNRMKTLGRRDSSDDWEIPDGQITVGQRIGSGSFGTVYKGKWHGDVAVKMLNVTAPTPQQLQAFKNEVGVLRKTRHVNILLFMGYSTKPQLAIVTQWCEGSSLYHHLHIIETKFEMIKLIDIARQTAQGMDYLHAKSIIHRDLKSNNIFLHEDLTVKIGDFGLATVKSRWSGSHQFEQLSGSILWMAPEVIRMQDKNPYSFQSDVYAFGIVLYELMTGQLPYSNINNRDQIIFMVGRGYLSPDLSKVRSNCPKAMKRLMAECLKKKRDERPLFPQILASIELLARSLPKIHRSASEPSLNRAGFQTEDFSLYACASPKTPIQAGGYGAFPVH
IC50 determination. To evaluate in vitro potency of compounds against B-RAF enzyme, the IC50 values of compounds of this invention were determined. Compounds were 3-fold serially diluted with 100% DMSO from 1 mM, then 4 ml of compounds were transferred to 96 ml of reaction buffer (50 mM HEPES pH7.4, 10 mM MgCl2, 1 mM EGTA, 0.01% Tween-20, 0.005% BAS, 2 mM DTT). […] Then 2.5 ml of 4×ATP (2 mM) was added to the reaction system and initiated the reaction. The assay plate was incubated in an incubator for 60 min at 23° C., then the reaction was terminated by adding 5 ml of detection solution containing Eu3+ cryptate-labeled anti-phosphotyrosine PT66 antibody, and 5 ml of Anti-6HIS-d2 antibody. The plate was incubated for 1 h at 23° C. and the fluorescent signal was read with an EnVision multilable plate reader (PerkinElmer). IC50 values of compounds were generated using GraFit software (Version 6.0).
Take `CCCS(=O)(=O)Nc1ccc(F)c(Nc2ncccc2-c2ncnc3[nH]cnc23)c1F` [Example 1, N-(3-(3-(9H-purin-6-yl)pyridin-2-ylamino)-2,4-difluorophenyl)propane-1-sulfonamide]: the negative-log IC50 (pIC50) was more than 7.00. The figure for `CCCS(=O)(=O)Nc1ccc(F)c(Nc2ncccc2-c2ncnc3[nH]c(C)nc23)c1F` [Example 3, N-(2,4-difluoro-3-(3-(8-methyl-9H-purin-6-yl)pyridin-2-ylamino)phenyl)propane-1-sulfonamide] is more than 6.30; for `CCCS(=O)(=O)Nc1ccc(F)c(Nc2ncccc2-c2ncnc3[nH]cnc23)c1` [Example 4, N-(3-(3-(9H-purin-6-yl)pyridin-2-ylamino)-4-fluorophenyl)propane-1-sulfonamide] it is more than 7.00. The figure for `CCCS(=O)(=O)Nc1ccc(Cl)c(Nc2ncccc2-c2ncnc3[nH]cnc23)c1` [Example 5, N-(3-(3-(9H-purin-6-yl)pyridin-2-ylamino)-4-chlorophenyl)propane-1-sulfonamide] is more than 7.00; for `CCCS(=O)(=O)Nc1ccc(C)c(Nc2ncccc2-c2ncnc3[nH]cnc23)c1` [Example 6, N-(3-(3-(9H-purin-6-yl)pyridin-2-ylamino)-4-methylphenyl)propane-1-sulfonamide] it is more than 7.00; for `CCCS(=O)(=O)Nc1ccc(Cl)c(Nc2ncccc2-c2ncnc3[nH]cnc23)c1F` [Example 7, N-(3-(3-(9H-purin-6-yl)pyridin-2-ylamino)-4-chloro-2-fluorophenyl)propane-1-sulfonamide] it is more than 7.00.

As to `CCCS(=O)(=O)Nc1ccc(F)c(Nc2ncccc2-c2ncnc3[nH]cnc23)c1Cl` [Example 8, N-(3-(3-(9H-purin-6-yl)pyridin-2-ylamino)-2-chloro-4-fluorophenyl)propane-1-sulfonamide], the pIC50 is more than 7.00.

For the molecule `O=S(=O)(CCCF)Nc1ccc(Cl)c(Nc2ncccc2-c2ncnc3[nH]cnc23)c1F` [Example 9, N-(3-(3-(9H-purin-6-yl)pyridin-2-ylamino)-4-chloro-2-fluorophenyl)-3-fluoropropane-1-sulfonamide], the pIC50 was more than 7.00. The result for `O=S(=O)(CCCF)Nc1ccc(F)c(Nc2ncccc2-c2ncnc3[nH]cnc23)c1F` [Example 10, N-(3-(3-(9H-purin-6-yl)pyridin-2-ylamino)-2,4-difluorophenyl)-3-fluoropropane-1-sulfonamide] reads more than 7.00; that for `O=S(=O)(CCl)Nc1ccc(F)c(Nc2ncccc2-c2ncnc3[nH]cnc23)c1F` [Example 11, N-(3-(3-(9H-purin-6-yl)pyridin-2-ylamino)-2,4-difluorophenyl)-1-chloromethanesulfonamide], more than 6.30.

On to `CCS(=O)(=O)Nc1ccc(F)c(Nc2ncccc2-c2ncnc3[nH]cnc23)c1F` [Example 12, N-(3-(3-(9H-purin-6-yl)pyridin-2-ylamino)-2,4-difluorophenyl)ethanesulfonamide], for which the pIC50 is more than 6.00. The figure for `CS(=O)(=O)Nc1ccc(F)c(Nc2ncccc2-c2ncnc3[nH]cnc23)c1F` [Example 13, N-(3-(3-(9H-purin-6-yl)pyridin-2-ylamino)-2,4-difluorophenyl)methanesulfonamide] is more than 6.30; for `O=S(=O)(Nc1ccc(F)c(Nc2ncccc2-c2ncnc3[nH]cnc23)c1F)c1ccc(F)c(F)c1` [Example 14, N-(3-(3-(9H-purin-6-yl)pyridin-2-ylamino)-2,4-difluorophenyl)-3,4-difluorobenzenesulfonamide] it is more than 6.30. The figure for `O=S(=O)(Nc1ccc(F)c(Nc2ncccc2-c2ncnc3[nH]cnc23)c1F)c1ccccc1` [Example 15, N-(3-(3-(9H-purin-6-yl)pyridin-2-ylamino)-2,4-difluorophenyl)benzenesulfonamide] is more than 7.00; for `O=S(=O)(Nc1ccc(F)c(Nc2ncccc2-c2ncnc3[nH]cnc23)c1F)c1ccc(Cl)cc1` [Example 17, N-(3-(3-(9H-purin-6-yl)pyridin-2-ylamino)-2,4-difluorophenyl)-4-chlorobenzenesulfonamide] it is more than 6.30; for `O=S(=O)(CCC(F)(F)F)Nc1ccc(F)c(Nc2ncccc2-c2ncnc3[nH]cnc23)c1F` [Example 18, N-(3-(3-(9H-purin-6-yl)pyridin-2-ylamino)-2,4-difluorophenyl)-3,3,3-trifluoropropane-1-sulfon amide] it is more than 7.00. As to `O=S(=O)(CC(F)(F)F)Nc1ccc(F)c(Nc2ncccc2-c2ncnc3[nH]cnc23)c1F` [Example 19, N-(3-(3-(9H-purin-6-yl)pyridin-2-ylamino)-2,4-difluorophenyl)-2,2,2-trifluoromethanesulfonamide], the pIC50 is more than 7.00.

As to `C=CS(=O)(=O)Nc1ccc(F)c(Nc2ncccc2-c2ncnc3[nH]cnc23)c1F` [Example 20, N-(3-(3-(9H-purin-6-yl)pyridin-2-ylamino)-2,4-difluorophenyl)ethenesulfonamide], the negative logarithm of the IC50 (pIC50) was more than 6.30. The figure for `O=S(=O)(Nc1ccc(F)c(Nc2ncccc2-c2ncnc3[nH]cnc23)c1F)C1CC1c1ccccc1` (centres unmarked) [Example 21, N-(3-(3-(9H-purin-6-yl)pyridin-2-ylamino)-2,4-difluorophenyl)-2-phenylcyclopropane-1-sulfonamide] is more than 6.30; for `COc1ccc(C2CC2S(=O)(=O)Nc2ccc(F)c(Nc3ncccc3-c3ncnc4[nH]cnc34)c2F)cc1` (centres unmarked) [Example 22, N-(3-(3-(9H-purin-6-yl)pyridin-2-ylamino)-2,4-difluorophenyl)-2-(4-methoxyphenyl)cyclopropane-1-sulfonamide] it is more than 6.00. Consider `O=S(=O)(Nc1ccc(F)c(Nc2ncccc2-c2ncnc3[nH]cnc23)c1F)c1ccc(F)cc1` [Example 23, N-(3-(3-(9H-purin-6-yl)pyridin-2-ylamino)-2,4-difluorophenyl)-4-fluorobenzenesulfonamide], for which the negative logarithm of the IC50 (pIC50) was more than 6.00. Consider `O=S(=O)(Nc1ccc(F)c(Nc2ncccc2-c2ncnc3[nH]cnc23)c1F)c1ccsc1` [Example 24, N-(3-(3-(9H-purin-6-yl)pyridin-2-ylamino)-2,4-difluorophenyl)thiophene-3-sulfonamide], for which the pIC50 is more than 7.00.

As for `CCCS(=O)(=O)Nc1ccc(F)c(Nc2ncccc2-c2ncnc3[nH]ncc23)c1F` [Example 25, N-(3-(3-(1H-pyrazolo[3,4-d]pyrimidin-4-yl)pyridin-2-ylamino)-2,4-difluorophenyl)propane-1-sulfonamide], the pIC50 is more than 6.30. The figure for `CCCS(=O)(=O)Nc1ccc(F)c(Nc2ncccc2-c2ncnc3[nH]ccc23)c1F` [Example 26, N-(3-(3-(7H-pyrrolo[2,3-d]pyrimidin-4-yl)pyridin-2-ylamino)-2,4-difluorophenyl)propane-1-sulfonamide] is more than 6.30. The result for `CCCS(=O)(=O)Nc1ccc(C)c(Nc2ccccc2-c2ncnc3[nH]cnc23)c1` [Example 27, N-(3-(2-(9H-purin-6-yl)phenylamino)-4-methylphenyl)propane-1-sulfonamide] reads more than 7.00; that for `CCCS(=O)(=O)Nc1ccc(F)c(Nc2ccccc2-c2ncnc3[nH]cnc23)c1F` [Example 28, N-(3-(2-(9H-purin-6-yl)phenylamino)-2,4-difluorophenyl)propane-1-sulfonamide], more than 6.00.
